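Test compounds were applied to cells in 96-well plates for 48 hours at 5 doses. TGI: concentration producing complete growth inhibition.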
Assays:
Assay in all cases: NCI tumour cell line growth inhibition, 48 h
A549 NSCLC = system: A549 NSCLC
BT-549 breast = system: BT-549 breast
HS 578T breast = system: HS 578T breast
M14 melanoma = system: M14 melanoma
MDA-MB-435 = system: MDA-MB-435
RPMI-8226 leukemia = system: RPMI-8226 leukemia
SK-MEL-5 melanoma = system: SK-MEL-5 melanoma
SK-OV-3 ovarian = system: SK-OV-3 ovarian
SW-620 colon = system: SW-620 colon
MALME-3M melanoma = system: MALME-3M melanoma

Row | SMILES | TGI (A549 NSCLC) | TGI (BT-549 breast) | TGI (HS 578T breast) | TGI (M14 melanoma) | TGI (MDA-MB-435) | TGI (RPMI-8226 leukemia) | TGI (SK-MEL-5 melanoma) | TGI (SK-OV-3 ovarian) | TGI (SW-620 colon) | TGI (MALME-3M melanoma)
1 | N#CCCN(CCC#N)c1ccc(/C=C2\N=C(c3ccccc3)N(c3ccc(C(=O)O)cc3)C2=O)cc1 | > 100 µM | 71.2 µM | 58.5 µM | > 100 µM | > 100 µM | > 100 µM | > 100 µM | > 100 µM | 48.3 µM | –
2 | N#[N+]c1c([O-])c2ccccc2c2ccccc12 | > 100 µM | > 100 µM | > 100 µM | > 100 µM | > 100 µM | > 100 µM | 35.4 µM | > 100 µM | > 100 µM | –
3 | Oc1ccc(/C=C/c2cccc(/C=C/c3ccc(O)c(O)c3)n2)cc1O | 22.2 µM | > 100 µM | > 100 µM | 16.9 µM | 28 µM | 31.1 µM | 15.8 µM | 34 µM | > 100 µM | –
4 | CC1(C)OCC(C2OC3OC(C)(C)OC3C2c2ccccc2)O1 (stereo not drawn) | > 100 µM | – | 64.4 µM | 93.9 µM | 93.5 µM | > 100 µM | 33.2 µM | > 100 µM | > 100 µM | > 100 µM
5 | CC(C)(C)C(=O)Oc1ccc(/C=C/C(=O)c2ccc(OC(=O)C(C)(C)C)cc2)cc1 | > 100 µM | – | 86.9 µM | > 100 µM | > 100 µM | – | > 100 µM | > 100 µM | > 100 µM | > 100 µM
6 | COC(=O)CCC1(CCC(=O)OC)CCCCCCC(CCC(=O)OC)(CCC(=O)OC)C(=O)C1=O | > 100 µM | – | > 100 µM | > 100 µM | > 100 µM | > 100 µM | > 100 µM | > 100 µM | – | > 100 µM
7 | CCOP(=O)(OCC)/C(C#N)=C/c1ccccn1 | > 100 µM | – | > 100 µM | > 100 µM | > 100 µM | > 100 µM | > 100 µM | > 100 µM | > 100 µM | > 100 µM
8 | Cn1c(=Nc2ccc(Cl)cc2)sc2ccccc21 | > 100 µM | – | > 100 µM | – | > 100 µM | > 100 µM | > 100 µM | > 100 µM | > 100 µM | > 100 µM
9 | COC(=O)C1Cc2c(OC)ccc(OC)c2C(O)C1C(=O)OC (stereo not drawn) | > 100 µM | – | > 100 µM | > 100 µM | > 100 µM | > 100 µM | > 100 µM | – | > 100 µM | > 100 µM
10 | O=C(c1ccccc1)N1C(=O)N(c2ccccc2)C(=Nc2ccccc2)C1=Nc1ccccc1 | > 100 µM | – | > 100 µM | – | > 100 µM | > 100 µM | > 100 µM | > 100 µM | > 100 µM | > 100 µM
11 | CC1(C)CC(=O)c2c(nc3c(ccc4ccccc43)c2-c2ccc(NC(=O)CCC(=O)Nc3ccc(-c4c5c(nc6c4ccc4ccccc46)CC(C)(C)CC5=O)cc3)cc2)C1 | > 100 µM | > 100 µM | > 100 µM | > 100 µM | > 100 µM | > 100 µM | > 100 µM | > 100 µM | > 100 µM | –
12 | CCOC(=O)C(=CNc1ccc(N(C2=NCC(C)S2)c2ccc(F)c(Cl)c2)cc1)C(=O)OCC (stereo not drawn) | 86.1 µM | – | 55.3 µM | 35.4 µM | 55.9 µM | 72.8 µM | 36.7 µM | 70.7 µM | 57.1 µM | 39.4 µM
13 | CC(=O)O[C@H]1CC[C@@]2(C)C(=CC[C@@H]3[C@@H]2CC[C@]2(C)c4c(n[nH]c4C)C[C@@H]32)C1 | 33.9 µM | 32.1 µM | 48 µM | 37.3 µM | 33.9 µM | – | 29.5 µM | 46.1 µM | > 100 µM | 12.7 µM
14 | O=C(O)c1nc2ccc(C(F)(F)F)cc2nc1Nc1ccc(Cl)c(Cl)c1 | – | 14.7 µM | 41.6 µM | – | 19.1 µM | – | 23.7 µM | – | 24.1 µM | 31 µM
15 | Cc1cccc2oc3c(c(=O)c12)CC(O)C(C)(C)O3 (stereo not drawn) | > 100 µM | – | > 100 µM | > 100 µM | > 100 µM | > 100 µM | > 100 µM | > 100 µM | > 100 µM | > 100 µM
16 | c1ccc2cc3c(NC4=NCCO4)cccc3cc2c1 | > 100 µM | – | > 100 µM | > 100 µM | 98.8 µM | > 100 µM | > 100 µM | > 100 µM | > 100 µM | > 100 µM
17 | O=C(c1cccs1)c1nccc2c1cnc1ccccc12 | > 100 µM | – | > 100 µM | > 100 µM | > 100 µM | > 100 µM | > 100 µM | > 100 µM | > 100 µM | > 100 µM
18 | O=C1C[C@@]23CCC4(CC2CCC[C@H]3O1)OCCO4 (stereo partly drawn) | > 100 µM | – | > 100 µM | > 100 µM | > 100 µM | > 100 µM | > 100 µM | > 100 µM | > 100 µM | > 100 µM
19 | O=c1[nH]ncc2[nH]c3c4ccccc4ccc3c12 | 65.6 µM | > 100 µM | – | > 100 µM | 62.4 µM | > 100 µM | > 100 µM | > 100 µM | > 100 µM | > 100 µM
20 | CC1(C)CO[P@@](=S)(c2ccccn2)O[C@@H]1c1ccccc1 | > 100 µM | > 100 µM | > 100 µM | > 100 µM | > 100 µM | – | > 100 µM | > 100 µM | > 100 µM | > 100 µM
21 | CC(C)(C)OC(=O)N1NC(c2ccccc2)CC1c1ccccc1 (stereo not drawn) | 32.9 µM | – | > 100 µM | 58.8 µM | 65.3 µM | > 100 µM | 45.5 µM | > 100 µM | > 100 µM | –
22 | CCCCCCCCC/C=C1/CC(CO)(COC(=O)CC(C(C)C)C(C)C)OC1=O (stereo not drawn) | 13.9 µM | 27.7 µM | 3.91 µM | 20.4 µM | 19.6 µM | – | 21.9 µM | 31.5 µM | 19 µM | 14.3 µM
23 | COc1cc(C(=O)Oc2c(C(C)=O)sc3c2c(=O)n(-c2ccccc2)c(=S)n3-c2ccccc2)cc(OC)c1OC | 78.3 µM | – | 74.4 µM | 32.9 µM | 54.8 µM | 59.9 µM | 32.1 µM | > 100 µM | 68.4 µM | 27.8 µM

Source: PubChem BioAssay (NCI)
